Experimental data: a melting point compilation (Tetko et al.; mined from patent text by program, amines drawn as free bases though some values may be those of a salt)

Row | melting point | Structure (SMILES)
1 | 168 to 172 °C | O=C(NCC12CC3CC(CC(C3)C1)C2)c1c(Cl)ccc2nc(N3CCC[C@H](NCCc4nn[nH]n4)C3)ccc12
2 | 98 °C | Cc1cc(-n2ccnc2)c2cccc(OCc3c(Cl)ccc(S(=O)(=O)N4CCC[C@H]4C(=O)N(C)CCN(C)CCCO)c3Cl)c2n1
3 | 251 to 252 °C | CC(C)(C)c1n[nH]c2c1C(C1CCCCC1)N(c1ccc(-c3ccon3)cc1)C2=O (stereo not given)
4 | 156 to 159 °C | Nc1cnc(Oc2cnc3ccccc3c2)c(Cl)c1
5 | 150 °C | CSc1ccc(C=CC(=O)c2ccc(N(C)C)cc2)cc1
6 | 160 to 162 °C | CS(=O)(=O)c1ccc(Cl)c2[nH]ccc12
7 | 152 to 153 °C | CC(=O)c1nc2cc(C)c(F)cc2s1
8 | > 320 °C | O=C(O)C(=O)Nc1cccc(NC(=O)C(=O)O)c1Cl
9 | 139 to 141 °C | C[Si](C)(C)c1cccc(Br)c1C(=O)O
10 | 113 to 114 °C | CCCOc1c(OC)cc(C(=O)CCC(=O)c2cc(OC)c(OC)c(OC)c2)cc1SC
11 | 269 to 271 °C | CCc1c2c(cc3c(=O)cc(C(=O)O)oc13)CCCC2
12 | 185 to 188 °C | Cn1c(-c2ccc(Br)cc2)cnc1[C@H](Cc1ccccn1)N(C=O)c1cc2cc(Cl)ccc2o1
13 | 174 to 177 °C | CC1Cc2cccc(S(N)(=O)=O)c2O1 (stereo not given)
14 | 231 to 233 °C | CC1SC(C(=O)Nc2ccc(CN3CCOC3=O)cc2)Cc2cc3c(cc2C1=O)OCO3 (stereo not given)
15 | 84 to 91 °C | Cc1cc(OCc2ccc(-c3ccccc3-c3nnn(C(c4ccccc4)(c4ccccc4)c4ccccc4)n3)cc2)c(C(=O)c2ccccc2)c(C)n1
16 | 120 to 122 °C | CC(CCc1ccccc1)NC(CO)C(O)c1ccc(S(C)(=O)=O)cc1 (stereo not given)
17 | 115 to 117 °C | CCC=Cc1c(C(C)C)nc(C(C)C)c(CO)c1-c1ccc(F)cc1
18 | 179 to 182 °C | O=C(c1ccc(Cl)c(Cl)c1)N1CCCC(c2cc(Br)cc(Br)c2)=N1
19 | 51 to 52 °C | COc1cccc(-c2noc3ccsc23)c1
20 | 130 to 132 °C | CCC1c2cccn2-c2cc(OC)c(F)cc2N1S(=O)(=O)c1ccc(OC)c(C)c1 (stereo not given)
21 | 182 °C | CC(C)(C)N1C(=O)C(=O)N(c2cc(Cl)cc(Cl)c2)S1=O (stereo not given)
22 | 180 to 183 °C | Cc1nc(NC(=O)c2ccccc2)sc1C(=O)NCc1ccccc1F
23 | 69.4 to 70.8 °C | COc1ccc(C(=O)CC(=O)C(C)(C)C)cc1C(=O)CC(=O)C(C)(C)C
24 | 116 to 124 °C | COc1ccccc1C1(C(=O)O)CCCC1
25 | 69 to 72 °C | O=C(NCCO)C(F)(OC(F)(F)C(F)(F)C(F)(F)F)C(F)(F)F (stereo not given)

Row | melting point | Structure (SMILES)
26 | 135 to 140 °C | COc1ccc2c(c1)C(C)N(C)C(=O)C2c1cc(OC)c(OC)c(OC)c1 (stereo not given)
27 | 144 to 145 °C | CN(C(=O)c1ccc2nonc2c1)C1CCCCC1=O (stereo not given)
28 | 168 to 171 °C | CC(C)OC(=O)N1CCC(c2nc3cc(-c4ccc(-n5cnnn5)cc4F)ccc3o2)CC1
29 | 87 to 89 °C | CCOC(=O)c1cc2cc(OC(C)=O)ccc2n1C
30 | 202 to 203 °C | CNC(=O)c1ccccc1Nc1nc(Nc2ccc3c(c2)CCC(NCC(F)(F)F)CC3)ncc1Cl (stereo not given)
31 | 64 to 66 °C | Cc1ccc2c(c1)NC(=O)[C@H](N)C[C@@H]2C1CCCCC1 (relative stereo)
32 | 71 to 75 °C | CCN(CCO)Cc1cc(Nc2nc(Nc3cc4c(cc3OC)CCN(CC(=O)N(C)C)CC4)ncc2Cl)ccc1F
33 | 194 to 196 °C | CCOc1cc2c(cc1O)C(=O)CC1C2CCC2(C)C(O)CCC12 (stereo not given)
34 | 114 to 117 °C | CCCCCCCCCCCCCCCC(CC)C1OC(=O)C(O)=C1O (stereo not given)
35 | 146 to 148 °C | COC(=O)C(NC(=O)c1ccc(Cl)cc1)C(=O)OC
36 | 132 to 134 °C | COC(=O)c1cc(-c2ccccc2)c(=O)n2c1-c1sccc1CN2C(C)=O
37 | 33 to 35 °C | CN(C)CCCCCCCCCCOc1ccc(C(=O)c2ccccc2)cc1
38 | 116 to 119 °C | CCc1nc2c(C)cc(C)nc2n1Cc1ccc(C(=C(SC)c2nnn[nH]2)c2ccccc2)cc1
39 | 157 to 159 °C | Cc1nn(C)c(Cl)c1C(=O)Nc1ccccc1
40 | 168 to 171 °C | CCCc1ccc(OCCc2c[nH]cn2)cc1
41 | 76 to 78 °C | CC(C)=CCN1CCc2c(sc(N)c2C(=O)c2ccccc2)C1
42 | 69 °C | Cc1cc(N)c(Br)c(C)c1C
43 | 136 to 138 °C | CC(C)(C)c1cc(CCc2ccccc2NC(=O)N2CCCCCC2)cc(C(C)(C)C)c1O
44 | 191 to 193 °C | NNC1=NC2CCCc3cccc(c32)N1 (stereo not given)
45 | 121 °C | CCC(CNC(=O)c1ccc(C(F)(F)F)c(NC(C)=O)c1)OC(C)=O (stereo not given)
46 | 87 to 89 °C | O=C1CSCc2cc(-c3ccccc3)ccc21
47 | 87 to 93 °C | CN(C)CCCNC(=O)c1ccc(-c2nnc(CSCCCCOc3ccccc3)o2)cc1
48 | 218 to 220 °C | O=C(NCc1ccc(Cl)cc1)c1cnc2cc(C#CCO)ccc2c1O
49 | 213 to 215 °C | CCc1cc(C)cc(C)c1C1C(=O)N2CCN(OC)CCN2C1=O
50 | 73 to 74 °C | CCCCNC(=O)C(O[Si](C)(C)C(C)(C)C)C(c1ccccc1)c1ccccc1 (stereo not given)

Row | melting point | Structure (SMILES)
51 | 255 to 256 °C | O=C(O)c1cccc(-c2nc(-c3ccc(F)cc3F)cs2)c1
52 | 146 to 148 °C | CCOC(=O)c1cc(CC)sc1Nc1ccc([N+](=O)[O-])cc1[N+](=O)[O-]
53 | 209 to 211 °C | COc1ccc(/C=C/C(=O)Nc2ccccc2C(=O)O)cn1
54 | 35 to 38 °C | CC(C)(CCC(=O)O)N(Cl)Cl
55 | 110 to 114 °C | CN1C(=O)CC[C@]2(C)c3ccc(Sc4ccc5nc6ccccc6c(=O)n5n4)cc3CC[C@@H]12
56 | 244 to 247 °C | Cc1nc(C)n(-c2cc(C)c3[nH]c(=O)ccc3c2)c1[N+](=O)[O-]
57 | 96 to 98 °C | O=C1C=C(OCCCCCCO)c2ccccc2C1=O
58 | 74 to 75 °C | C=CCNc1nc(NCCC)nc2c(C)csc12
59 | 63 to 65 °C | C=CCNS(=O)(=O)c1ccc(Br)cc1
60 | 155 °C | Clc1ccc(-c2cc(CCC3CCCNC3)c3ccccc3n2)cc1 (stereo not given)
61 | 225 °C | CC(C)(C)C1=NN(c2ccc(C(=O)O)cc2)C(c2ccccc2F)C1 (stereo not given)
62 | 215 to 216 °C | Cc1cc(S(N)(=O)=O)ccc1NC(=O)Cc1ccc(Oc2cc(Cl)cc(C#N)c2)c(Br)c1
63 | 144 to 147 °C | CNC(=O)N(OC)C(=O)Nc1ccccc1F
64 | 169 to 170 °C | COc1ccc2c(c1OC)C(=O)O[C@@H]2[C@H]1c2c(c(Br)c3c(c2OC)OCO3)CCN1C
65 | 131 to 136 °C | CCCCCC(=O)Nc1ccn(C2OC(CO)C(O)C2O)c(=O)n1 (stereo not given)
66 | 94 to 95 °C | COCc1cc(C(C)(C)C)cc(COC)c1SSc1c(COC)cc(C(C)(C)C)cc1COC
67 | 133 to 134 °C | O=c1n(Cc2ccccc2)nc2n1C=Cc1ccccc1C2
68 | 217 to 218 °C | CCOCCOC(=O)C(=O)Nc1nc(-c2cc3ccc(O)cc3oc2=O)cs1
69 | 297 to 299 °C | Cc1[nH]c2ccc(C3=NNC(=O)CC3)cc2c1-c1ccccc1
70 | 167 to 168 °C | O=S(=O)(c1ccc(Cl)cc1)C(c1ccc(C2OCCO2)cn1)c1cc(F)ccc1F (stereo not given)
71 | 141 to 143 °C | COc1cc2c(cc1OC)CC(N(C)CCCN1CCc3cc(OC)c(OC)cc3C(O)C1=O)CC2 (stereo not given)
72 | 125 to 126 °C | O=C1Cc2ccccc2Sc2cc(Cl)c(F)cc21
73 | > 300 °C | O=C(O)c1c2c(nc3ccc(F)cc13)-c1ccc(-c3ccc(F)cc3)cc1CC2
74 | 105 °C | CCN(CC)C(=O)c1cn(-c2cccc(Cl)c2)cn1
75 | 195 to 196 °C | N#Cc1ccc2c(c1)-c1cc(C#N)ccc1OCCO2

Row | melting point | Structure (SMILES)
76 | 146 to 148 °C | CN(C)C(=O)c1cc2c(OC[C@@H](O)CN3CCC(c4ccc5ccccc5c4)CC3)cccc2n1C
77 | 227 to 229 °C | NC(=O)c1ccc(C(F)(F)F)nc1N
78 | 185 to 195 °C | COC(=O)C1=C(C)NC(CC(=O)N2CCN(C3CCCC3)CC2)=C(C(=O)OC)C1c1c(Cl)cccc1Cl (stereo not given)
79 | 79 to 81 °C | CC1(C)OC(c2ccc(S(N)(=O)=O)cc2F)=C(c2ccccc2)C1=O
80 | 81 to 82 °C | Cc1c(CBr)oc2ccc(Cl)cc12
81 | 127 to 129 °C | COc1ccc(CCNCC(O)COc2ccc(-c3nc(-c4cccs4)c[nH]3)cc2)cc1OC (stereo not given)
82 | 153 to 154 °C | Cc1sc2ncc(C(O)CCc3ccccc3)n2c1C (stereo not given)
83 | 83 to 86 °C | NS(=O)(=O)c1cc(C(=O)O)cc(SCc2ccccn2)c1-c1ccccc1
84 | 241 °C | CCOC(=O)Nc1ccc2c(c1)C(c1ccccc1Cl)=CCC(=O)N2
85 | 71 to 72 °C | CC(O)CCCCc1ccc(-c2ccccc2)cc1 (stereo not given)
86 | 202 °C | CN1C(=O)N(c2cc(Cl)nc(Cl)c2)C(=O)[C@]12CNC[C@H]2c1ccc(C#N)cc1 (relative stereo)
87 | 106 °C | CCCCCS(=O)(=O)NC/C=C/c1ccc(OCCOC)cc1Oc1ncc(C(F)(F)F)cc1Cl
88 | 190 °C | N#Cc1c(SC(F)(F)F)c(NC(=O)C(F)(F)F)n(-c2c(Cl)cc(C(F)(F)F)cc2Cl)c1Cl
89 | 132 °C | N#CCCN(Cc1ccccc1)CC(O)CO (stereo not given)
90 | 140 to 142 °C | CC(=O)SCC(C)C(=O)N(C1Cc2ccccc2C1)[C@@H](C)C(=O)O (stereo not given in full)
91 | 172 to 174 °C | CCOC(=O)C1=C(C)NC(C)=C(C(=O)OCC)C1c1ccccc1/C=C/C(=O)OCC(C)C
92 | 177 to 179 °C | Nc1nccnc1C(=O)Nc1ccccc1Cl
93 | 156 °C | O=C1CN(c2ccccc2)C(=S)N1C1CCCCC1
94 | 165 to 166 °C | CCCc1nc(NS(=O)(=O)c2ccc(C(C)(C)C)cc2)c(-c2ccc(C)cc2)c(OCCOc2ncc(-c3cccs3)cn2)n1
95 | 252 to 254 °C | Cc1ccccc1-c1c(NC(=O)Nc2ccc(F)cc2F)cnc2cc3c(cc12)CCC3
96 | 269 °C | Cc1nc(NC(=O)c2cnn3c(C(F)F)cc(-c4ccc(C(F)(F)F)cc4)nc23)sc1S(=O)(=O)N1CCN(C)CC1
97 | 151 to 154 °C | NC(=O)C1CCc2ccccc21 (stereo not given)
98 | 221 to 224 °C | CS(=O)(=O)c1cc([N+](=O)[O-])cc(O)c1O

Row | Structure (SMILES) | melting point
99 | BrCc1ccc2ccccc2n1 | 33 to 37 °C
100 | Fc1ccc2[nH]cc(C3=CCN(CC4COc5ccc6[nH]ccc6c5O4)CC3)c2c1 (stereo not given) | 112 °C
